These results are taken from paper PMC11247503 (Journal of Medicinal Chemistry, 2024).

“Also recorded” adds a separate entry of the source. Counter-ions that a name gives are not always drawn. Like-named read-outs stand apart in the source and are kept apart here.

Data set [1] deals with T1, mouse Spns2 (Mus musculus, UniProt Q91VM4).
T1 construct: expressed in transfected cells; host or cells: HeLa cells (G418-resistant pools)
T1 sequence (Q91VM4 1-549): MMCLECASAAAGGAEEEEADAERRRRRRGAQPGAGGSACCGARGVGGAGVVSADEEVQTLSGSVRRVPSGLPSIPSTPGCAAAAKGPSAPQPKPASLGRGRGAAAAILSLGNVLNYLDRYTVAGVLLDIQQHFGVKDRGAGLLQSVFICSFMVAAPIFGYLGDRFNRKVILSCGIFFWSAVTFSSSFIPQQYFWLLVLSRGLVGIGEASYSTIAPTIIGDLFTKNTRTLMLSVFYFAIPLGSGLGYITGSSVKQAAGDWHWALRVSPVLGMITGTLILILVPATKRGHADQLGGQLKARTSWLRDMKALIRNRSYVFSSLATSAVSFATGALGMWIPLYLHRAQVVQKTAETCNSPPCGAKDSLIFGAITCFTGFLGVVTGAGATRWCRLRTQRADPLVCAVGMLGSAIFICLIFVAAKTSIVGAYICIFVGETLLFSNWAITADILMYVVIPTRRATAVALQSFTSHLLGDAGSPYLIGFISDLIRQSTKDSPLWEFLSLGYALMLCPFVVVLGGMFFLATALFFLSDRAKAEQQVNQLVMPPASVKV
The settings on record: read-out: IC50 (Spns2 inhibition); cited from earlier work.

Data set [2] deals with T1, mouse Spns2. Kind of data set: HeLa cell S1P release assay (Spns2 inhibition). The data set is classed as cell-based. The settings on record: for inhibition at 1 µM: read-out: %Inhib. (Spns2 inhibition, percent decrease in S1P secretion relative to control). On the procedure:
With a library of analogs of SLB1122168 containing phenylurea, phenylcarbamate, and benzamide as bioisostere of the benzoxazole, we investigated their potential in inhibiting S1P transport using a HeLa cell assay.[36]−[38],[43] Briefly, in this assay, Spns2 is overexpressed whereas the S1P-degrading enzymes (lyase or phosphatases) were blocked with inhibitors.[44],[45] Inhibition of S1P transport is determined by measuring the amount of S1P in the buffer using LC-MS.
This assay was conducted as reported by Kharel et al.[43] Briefly, compounds were assessed in a HeLa cell assay at a 1 μM test concentration, unless noted otherwise. HeLa cells were transfected with a pcDNA3.1 plasmid encoding mouse Spns2, and pools of cells resistant to G418 were selected. S1P catabolic pathways were suppressed by the addition of 4-deoxypyridoxine (1 mM), NaF (2 mM), and Na3VO4 (0.2 mM). After growing cells to near confluence on 12-well tissue culture dishes, growth media was removed, inhibitors were introduced in release media (serum free medium containing 0.2% fatty acid free BSA), and the cells were incubated for 16–18 h at 37 °C. The BSA with bound S1P was concentrated from the release media by TFA-driven precipitation after addition of the d7-S1P internal standard, the S1P extracted from the protein pellet, and quantified by LC-MS/MS. Lower levels of S1P release into the media indicated greater degrees of Spns2 inhibition. Inhibition is reported as the percent decrease in S1P release relative to the control where no inhibitor was introduced.

In data set [3] the test system is kidney fibrosis. Details: method as in PMID 35976996. To be noted: unilateral ischemia-reperfusion injury; cited from earlier work.
For data set [4], the system named is mice. Details: method as in PMID 35609189. The settings on record: dose 30 mg/kg; cited from earlier work.
Data set [5] concerns plasma S1P. Kind of data set: Plasma S1P concentrations in mice. The data set is classed as in vivo, mice (C57BL/6j). The protocol:
(§1) To determine the effect of 11iin vivo, mice were treated with 3, 10, and 30 mg/kg intraperitoneally, and the amount of circulating lymphocytes was quantified. A hallmark of Spns2 inhibition is the decrease in lymphocytes counts, which is a pharmacodynamic marker of target engagement.[54],[55] […] To determine whether blood S1P levels were affected, plasma S1P concentrations were measured via LC-MS. […] The extent by which Spns2 inhibition by knockout or a pharmacological inhibitor affects the S1P level remains unclear. A range of changes from no significant difference[30]−[32] to 45% reduction in plasma S1P levels compared to wild type littermates have been reported.[9],[24],[28],[33]
(§2) Figure 8 Biological evaluation of 11i in five C57BL/6j strain female mice (8–10 weeks old). […] Blood was drawn 4 h postdose. (B) Plasma S1P concentrations in mice treated with 11i are shown relative to vehicle 6 h following IP administration at 3 mg/kg, 10 mg/kg, and 30 mg/kg. […] Blood was drawn 4 h postdose. (D) Plasma S1P concentrations in mice treated with 11i are shown relative to vehicle 4 h post oral administration at 10 mg/kg, 30 mg/kg, and 100 mg/kg. […]
(§3) Compounds that performed well in the HeLa cell assay were subsequently administered to mice (C57BL/6j strain). […] Plasma S1P concentrations were determined using LC-MS/MS. […]

Data set [6] can be described thus: Compound concentrations in plasma of mice after oral dose. The format is in vivo, mice (C57BL/6j). On the procedure: We next investigated the potential oral bioavailability of 11i (SLF80821178), which will be a significant advantage over SLB1122168. […] Thus, mice were administered a single 10 mg/kg oral dose of 11i, and compound levels in plasma were quantified.
Figure 7 Compound concentrations in plasma of mice treated with 11i. Three C57BL/6j strain female mice (8–10 weeks old) were treated with a single 10 mg/kg dose of 11i administered PO. Blood samples were collected, and plasma 11i levels were quantified via LC-MS/MS.
Compounds that performed well in the HeLa cell assay were subsequently administered to mice (C57BL/6j strain). Inhibitor (10 mg/kg) or an equivalent dose of vehicle (36.1% PEG400/9.1% ethanol/4.6% solutol/50% H2O) was administered to animals via an intraperitoneal injection or oral gavage. After 6 to 16 h, blood samples were collected. Lymphocyte counts were obtained from 20 μL of mouse blood using a Heska HT5 Element blood analyzer. Plasma S1P concentrations were determined using LC-MS/MS. All animal protocols were approved prior to experimentation by the University of Virginia School of Medicine’s Animal Care and Use Committee.

The subject of data set [7] is circulating lymphocytes. Kind of data set: Circulating lymphocyte counts in mice. The data set is classed as in vivo, mice (C57BL/6j). On the procedure: as §1, §2, §3
On the set-up of data set [8]: method as in PMID 37010497. The settings on record: cited from earlier work.
Where [9] appears, read: HeLa, 1 μM inhibitor, HeLa cells, S1P in media by LC-MS/MS.

Broadly, the IC50 is the concentration at which inhibition is half-maximal. A word on the inhibition: it is the percentage by which the read-out fell short of the control. A word on the Tmax: it is the time from dosing to the highest level.

As to `CCCCCCCCCCc1ccc(-c2cn(CC)c(CCCN)n2)cc1` [SLF80721166], in data set [1], the IC50 is 1400 ± 300 nM.
For `CCCCCCCCCCc1ccc(-c2noc(CCCN)n2)cc1.Cl` [SLF1081851], the inhibition at 1 µM in data set [2] (setting [9]) came to 44 ± 5%. The “effect on kidney fibrosis” value in data set [3] is on record as “ameliorated kidney fibrosis”. Further, the toxicity to mice entry in data set [4] is given as “toxic”.
For `CCCCCCCCCCc1ccc(NC(=O)N[C@@H]2CCCNC2)cc1` [(R)-11e, (R)-1-(4-Decylphenyl)-3-(piperidin-3-yl)urea Hydrochloride], the inhibition at 1 µM in data set [2] (setting [9]) is 86%.
Take `CCCCCCCCCCc1ccc(NC(=O)N2CCNCC2)cc1.Cl` [11i, N-(4-Decylphenyl)piperazine-1-carboxamide Hydrochloride]: the “change in plasma S1P levels” value is given as “no change” in data set [5] (IP 3, 10 and 30 mg/kg, 6 h); “no change” in data set [5] (PO 10, 30 and 100 mg/kg, 4 h). For the same compound, in data set [2] (setting [9]), the inhibition at 1 µM was no less than 80%. For the same compound, the IC50 in data set [2] (dose-response 1 nM to 10 μM, HeLa cells transfected with Spns2, read-out: IC50, inhibition of S1P release from HeLa cells) amounted to 51 ± 3 nM. The oral bioavailability result in data set [6] (10 mg/kg PO) was “orally bioavailable”. Also, the Tmax in data set [6] (female, C57BL/6j, mouse, single 10 mg/kg PO, plasma, read-out: tmax (time of maximum circulating level)) turned out to be 4 h. For the same compound, the “compound exposure at tmax (maximum plasma concentration)” value in data set [6] (single 10 mg/kg PO, plasma) came to 1.2 µM. Besides, the “time circulating levels remained elevated above 0.5 μM” value in data set [6] (single 10 mg/kg PO, plasma) is “more than 8 h”. Besides, the “decrease in lymphocyte count, maximum level” value in data set [7] (IP 3, 10 and 30 mg/kg, blood 4 h postdose) is on record as 50%. Also, the “reduction in circulating lymphocyte counts” value in data set [7] (route not stated at this place (abstract)) was roughly 50%.
For the compound `CCCCCCCCCCc1ccc(C(=O)NC2CNC2)cc1` [4b, N-(Azetidin-3-yl)-4-decylbenzamide 2,2,2-Trifluoroacetate], the inhibition at 1 µM in data set [2] (HeLa) was found to be 77 ± 1%.
On to `CCCCCCCCCCc1ccc(NC(=O)O[C@H]2CCCNC2)cc1` [(S)-8e, (S)-Piperidin-3-yl (4-Decylphenyl)carbamate Hydrochloride], for which, in data set [2] (setting [9]), the inhibition at 1 µM is 48 ± 2%.
With `CCCCCCCCCCc1ccc(N(C)C(=O)N2CC3CCC(C2)N3)cc1` [17c, N-(4-Decylphenyl)-N-methyl-3,8-diazabicyclo[3.2.1]octane-3-carboxamide Hydrochloride], in data set [2] (setting [9]), the inhibition at 1 µM worked out at 18 ± 1%.
Turning to `CCCCCCCCCCc1ccc(NC(=O)N[C@H]2CCCNC2)cc1` [(S)-11f, (S)-1-(4-Decylphenyl)-3-(piperidin-3-yl)urea Hydrochloride], the inhibition at 1 µM in data set [2] (setting [9]) was 78 ± 4%.
On the same count and under the same terms, then `CCCCCCCCCCc1ccc(N(C)C(=O)N2CCNCC2)cc1` [17a, N-(4-Decylphenyl)-N-methylpiperazine-1-carboxamide Hydrochloride], with 13 ± 4%.
On the same count and under the same terms, in the case of `CCCCCCCCCCc1ccc(C(=O)N(C)CCCN)cc1` [13a, N-(3-Aminopropyl)-4-decyl-N-methylbenzamide Hydrochloride] it was 39 ± 4%.
As for `CCCCCCCCCc1ccc(NC(=O)N2CCNCC2)cc1` [20d, N-(4-Nonylphenyl)piperazine-1-carboxamide Hydrogen Chloride], in data set [2] (HeLa, 0.3 μM inhibitor (Figure 5), HeLa cells, read-out: % Inhibition, tail homologation study), the inhibition at 0.3 µM stood at 61 ± 4%.
In the case of `CCCCCCCCCCc1ccc2nc(NC[C@H]3CCNC3)oc2c1.Cl` [SLB1122168], in data set [2] (setting [9]), the inhibition at 1 µM stood at 85 ± 2%. Also, the oral bioavailability entry in data set [8] is given as “not orally bioavailable; also recorded: poor oral bioavailability”.
Consider “2-Aminoethyl (4-Decylphenyl)carbamate Hydrochloride [8a]”, for which, in data set [2] (1 μM inhibitor, HeLa cells, S1P in media by LC-MS/MS), the “%Inhib. (Spns2 inhibition, percent decrease in S1P secretion relative to control)” value is 44 ± 7%.
As to `CCCCCCCCCCc1ccc(NC(=O)N2CCCNCC2)cc1` [11m, N-(4-Decylphenyl)-1,4-diazepane-1-carboxamide Hydrochloride], the inhibition at 1 µM in data set [2] (setting [9]) came to 72 ± 1%.
Consider `CCCCCCCCCCc1ccc(NC(=O)NC2CCNCC2)cc1` [11h, 1-(4-Decylphenyl)-3-(piperidin-4-yl)urea Hydrochloride], for which the inhibition at 1 µM in data set [2] (setting [9]) stood at 34 ± 9%.
Still for that read-out and setting: then `CCCCCCCCCCc1ccc(NC(=O)N2CCN(C)CC2)cc1` [18a, N-(4-Decylphenyl)-4-methylpiperazine-1-carboxamide Hydrochloride], with 43 ± 4%; and `CCCCCCCCCCc1ccc(NC(=O)O[C@@H]2CCNC2)cc1` [(R)-8b, (R)-Pyrrolidin-3-yl (4-Decylphenyl)carbamate Hydrochloride], with 68 ± 1%.
